The data set in a line: Solubilities of Monomers 1 and 2 in toluene, MeOH and water. The class given is physicochemical.

From patent publication US20240076440A1, “PROCESS OF FORMING A CONJUGATED POLYMER” (Sumitomo Chemical Co., ltd., priority 2019, published 2024) come the findings set out here.

For the molecule `CCCCCCCCC1(CCCCCCCC)c2cc(B3OCCO3)ccc2-c2ccc(B3OCCO3)cc21` [Monomer 1], the “Solubility in MeOH” value reads like this: (Conc 0.1 mg/ml) “Soluble”; (Conc 1 mg/ml) “Soluble”; (Conc 50 mg/ml) “Soluble”; (Conc 75 mg/ml) “Not Soluble”. The “Solubility in Toluene” value by setting is: (Conc 0.1 mg/ml) “Soluble”; (Conc 1 mg/ml) “Soluble”; (Conc 75 mg/ml) “soluble”; (Conc 1 g/ml) “Soluble”; (Conc 2 g/ml) “Soluble”. In addition, the “Solubility in Water” value (Conc 1 mg/ml) was “Insoluble”.

In the case of `C[N+](C)(C)CCC1(CC[N+](C)(C)C)c2cc(Br)ccc2-c2ccc(Br)cc21` [Monomer 2], where the note is “Conc 0.1 mg/ml”, the “Solubility in Toluene” value is “Insoluble”. Moreover, where the note is “Conc 1 mg/ml”, the “Solubility in Toluene” value is listed as “Insoluble” and the “Solubility in Water” value was “Soluble”. Further, where the note is “Conc 50 mg/ml”, the “Solubility in MeOH” value is recorded as “Soluble” and the “Solubility in Water” value is given as “Insoluble”.
